Results on two compounds are retold here after ChEMBL document CHEMBL1130665, “Synthesis and biological evaluation of a water soluble phosphate prodrug of 3-aminopyridine-2-carboxaldehyde thiosemicarbazone (3-AP)” (Bioorg Med Chem Lett, 1998).

In general, clearance refers to the volume of plasma or blood freed of the substance per unit of time. A high value points to efficient removal.

Data set [1] in a line: Compound was evaluated for plasma clearance. The data set is classed as ADME, organism-based, Canis lupus familiaris. To be noted: dog.
The species entered for data set [2] is Canis familiaris. Put plainly: Compound was evaluated for area under the curve in dog blood. The data set is classed as ADME, organism-based, Canis lupus familiaris. To be noted: in vivo.
Data set [3] has as its system M109. Nature of the data set: In vivo antitumor activity evaluated against M-109 murine lung carcinoma cells in BALB/c mice administered intraperitoneally at a dose of 10 mg/kg. The data set is classed as functional, Mus musculus. To be noted: route intraperitoneal.
For data set [4], the system named is M109. Nature of the data set: In vivo antitumor activity evaluated against M-109 murine lung carcinoma cells in BALB/c mice administered intraperitoneally at a dose of 4.5 mg/kg. The data set is classed as functional, Mus musculus. To be noted: route intraperitoneal.

In data set [1], `N/C(S)=N/N=C/c1ncccc1NC(=O)OCc1ccc(OP(=O)([O-])[O-])cc1.[Na+].[Na+]` had a clearance of 43.8 mL/min/kg. For the same compound, the AUC in data set [2] is 74.04 mg/min/L. The same compound yielded a Tumor volume reduction in data set [3] of 46%.

In data set [1], `NC(=S)N/N=C/c1ncccc1N` [TRIAPINE] gave a clearance of 40.6 mL/min/kg. This compound also displayed an AUC in data set [2] of 71.59 mg/min/L. Further, in data set [4], the Tumor volume reduction turned out to be 30%.
